Laboratory results from patent US7282521B2, “Anti-retroviral moronic acid derivatives” (priority 2004, dated 2007).
Like-named read-outs stand apart in the source and are kept apart here.

Key:
[1] = tested on: FHR-2, an HIV-1 strain resistant to DSB (2); experiment: microbe, parasite or virus in culture; type: cell-based
Text: (§1) NL4-3 is a T-cell adapted HIV-1 strain, a wild type virus; PI—R is HIV-1M46I/L63P/V82P/I84V, an HIV-1 strain resistant to multiple protease inhibitors; and FHR-2 is an HIV-1 strain resistant to DSB (2).

[2] = tested on: NL4-3, a T-cell adapted HIV-1 strain, X4 wild type virus; experiment: microbe, parasite or virus in culture; type: cell-based
Text: as §1

MT-4 cells = experiment: Cell growth inhibition (cytotoxicity) of uninfected cells; type: cell-based; conditions: table title: MT-4 cells; uninfected H9 cell growth; read-out: IC50 (concentration that inhibits uninfected cell growth by 50%)
[3] = tested on: PI-R, HIV-1M46I/L63P/V82P/I84V, resistant to multiple protease inhibitors; experiment: microbe, parasite or virus in culture; type: cell-based
Text: as §1

HIV fusion = experiment: Anti-HIV fusion activity (preliminary, data not shown); type: cell-based; conditions: preliminary results
Text: as §1

[4] = Cell growth inhibition (cytotoxicity) of uninfected cells; type: cell-based; conditions: human, uninfected MT-4 cells; table title: MT-4 cells; uninfected H9 cell growth; read-out: IC50 (concentration that inhibits uninfected cell growth by 50%)
HIV in H9 lymphocyte = conditions: cited from earlier work
[5] = MT-4 cells, DSB-resistant HIV-1 strain, — = no suppression at 5 μM, read-out: EC50, FHR-2 (concentration that inhibits viral replication by 50%)
[6] = MT-4 cells, NL4-3 wild type HIV-1 strain, read-out: EC50, NL4-3 (concentration that inhibits viral replication by 50%)
[7] = MT-4 cells, multi-protease-inhibitor resistant HIV-1 strain, read-out: EC50, PI-R (concentration that inhibits viral replication by 50%)

Cc1cn([C@H]2C[C@H](N=[N+]=[N-])[C@@H](CO)O2)c(=O)[nH]c1=O [AZT, reference compound]
EC50 [1, 5]: 190 nM | EC50 [2, 6]: 13 nM | IC50 (MT-4 cells): > 37500 nM

CC(C)CC(CO)NC(=O)[C@]12CCC(C)(C)C=C1[C@H]1CC[C@@H]3[C@@]4(C)CC[C@H](OC(=O)CC(C)(C)C(=O)O)C(C)(C)[C@@H]4CC[C@@]3(C)[C@]1(C)CC2 (stereo partly drawn) [Compound 7, N-[3β-(3′,3′-Dimethylsuccinoxy)olean-18-en-28-oyl]-(1-hydroxy-methyl-3-methyl-butyl)-amide]
EC50 [1, 5]: 2780 nM | EC50 [2, 6]: 45 nM | EC50 [3, 7]: 88 nM | IC50 (MT-4 cells): > 14600 nM | anti-HIV fusion activity (HIV fusion): exhibit anti-HIV fusion activity

CC(C)C[C@H](NC(=O)[C@]12CCC(C)(C)C=C1[C@H]1CC[C@@H]3[C@@]4(C)CC[C@H](OC(=O)CC(C)(C)C(=O)O)C(C)(C)[C@@H]4CC[C@@]3(C)[C@]1(C)CC2)C(=O)O [Compound 8, N-[3β-(3′,3′-Dimethylsuccinoxy)olean-18-en-28-oyl]-L-leucine]
EC50 [1, 5]: 130 nM | EC50 [2, 6]: 5.7 nM | EC50 [3, 7]: 21 nM | IC50 (MT-4 cells): > 14300 nM | anti-HIV fusion activity (HIV fusion): exhibit anti-HIV fusion activity

C=C(C)[C@@H]1CC[C@]2(C(=O)O)CC[C@]3(C)[C@H](CC[C@@H]4[C@@]5(C)CC[C@H](OC(=O)CC(C)(C)C(=O)O)C(C)(C)[C@@H]5CC[C@]43C)[C@@H]12 [DSB (2), 3-O-(3′,3′-dimethylsuccinyl)-betulinic acid, reference compound]
EC50 ([1]; Human immunodeficiency virus 1, MT4, read-out: EC50, FHR-2 (concentration that inhibits viral replication by 50%)): > 5000 nM | EC50 ([2]; Human immunodeficiency virus 1, NL43, MT4, read-out: EC50, NL4-3 (concentration that inhibits viral replication by 50%)): 96 nM | EC50 ([3]; Human immunodeficiency virus 1, MT4, read-out: EC50, PI-R (concentration that inhibits viral replication by 50%)): 430 nM | IC50 [4]: > 5000 nM

CC1(C)C=C2[C@H]3CC[C@@H]4[C@@]5(C)CCC(=O)C(C)(C)[C@@H]5CC[C@@]4(C)[C@]3(C)CC[C@@]2(C(=O)O)CC1 [moronic acid (3), moronic acid]
EC50, anti-HIV activity (HIV in H9 lymphocyte): < 0.1 µg/mL
